We go through five compounds from ChEMBL document CHEMBL5678796, “A highly potent and selective farnesyltransferase inhibitor ABT-100 in preclinical studies” (Anticancer Drugs, 2005).

Assay [1] deals with HCT-116. Put plainly: Antitumor activity against human HCT-116 cells xenografted in nu/nu CD1 mouse assessed as increase in life span at 50 mg/kg, ip preinoculated with cells for 14 days followed by once every 4 days compound administration for 4 times and measured on day 40 relative to vehicle in time to 1 cm^3 tumor. It counts as functional. Conditions: HCT-116, 960 h, time 40 day.

Assay [2] has as its system HCT-116. Nature of the assay: Antitumor activity against human HCT-116 cells xenografted in nu/nu CD1 mouse assessed as tumor volume at 30 mg/kg, ip preinoculated with cells for 5 days followed by once every 3 days compound administration for 4 times and measured on day 22 (reference value: 1861 +/- 410 mm^3). The conditions noted are these: time 22 day. It counts as functional.

The subject of assay [3] is HCT-116. Put plainly: Antitumor activity against human HCT-116 cells xenografted in nu/nu CD1 mouse assessed as reduction in tumor volume by measuring test to control ratio at 30 mg/kg, ip preinoculated with cells for 5 days followed by once every 3 days compound administration for 4 times and measured on day 22. The format is functional. The conditions noted are these: time 22 day.

For assay [4], the system named is HCT-116. Nature of the assay: Antitumor activity against human HCT-116 cells xenografted in nu/nu CD1 mouse assessed as increase in life span at 30 mg/kg, ip preinoculated with cells for 5 days followed by once every 3 days compound administration for 4 times and measured on day 22 relative to vehicle in time to 1 cm3 tumor. The conditions noted are these: HCT-116, 528 h, time 22 day. It counts as functional.

A short description of assay [5]: Inhibition of recombinant bovine FTase incubated for 30 mins in presence of [3H]FPP by SPA based Topcount scintillation plate reader analysis. More on the design: species or system Bos taurus.
Assay [6] in a line: Inhibition of recombinant human FTase incubated for 30 mins in presence of [3H]FPP by SPA based Topcount scintillation plate reader analysis.
Assay [7] in a line: Inhibition of recombinant bovine GGTase I incubated for 30 min sin presence of [3H]FPP by SPA based Topcount scintillation plate reader analysis. Further details: species or system Bos taurus.
The subject of assay [8] is NIH3T3. Nature of the assay: Inhibition of anchorage-independent growth in H-Ras transformed mouse NIH3T3 cells assessed as inhibition of colony formation incubated for 14 days in presence of 10% bovine serum by imaging based soft agar colony formation assay. The format is functional, cell-based. The conditions noted are these: NIH3T3, 336 h.
Assay [9] relates to HCT-116. Put plainly: Inhibition of anchorage-independent growth in human HCT-116 cells assessed as inhibition of colony formation incubated for 14 days in presence of 10% FBS by imaging based soft agar colony formation assay. The conditions noted are these: HCT-116, 336 h. It counts as functional, cell-based.
In assay [10] the test system is HCT-116. Nature of the assay: Antitumor activity against human HCT-116 cells xenografted in nu/nu CD1 mouse assessed as tumor volume at 100 mg/kg, sc preinoculated with cells for 5 days followed by twice daily compound administration for 21 days and measured on day 22 (reference value: 1436 +/- 263 mm^3). The format is functional. The conditions noted are these: time 22 day.

Assay [11] deals with HCT-116. Nature of the assay: Antitumor activity against human HCT-116 cells xenografted in nu/nu CD1 mouse assessed as reduction in tumor volume by measuring test to control ratio at 100 mg/kg, sc preinoculated with cells for 5 days followed by twice daily compound administration for 21 days and measured on day 22. It counts as functional. The conditions noted are these: time 22 day.

Assay [12] has as its system HCT-116. Nature of the assay: Antitumor activity against human HCT-116 cells xenografted in nu/nu CD1 mouse assessed as increase in life span at 100 mg/kg, sc preinoculated with cells for 5 days followed by twice daily compound administration for 21 days and measured on day 22 relative to vehicle in time to 1 cm3 tumor. The format is functional. Conditions: HCT-116, 528 h, time 22 day.

The nature of assay [13]: Inhibition of FTase in H-Ras transformed mouse NIH3T3 cells using Ras as substrate assessed as inhibition of substrate prenylation in presence of 10% bovine serum by immunoblot analysis. The format is cell-based.
A short description of assay [14]: Inhibition of GGTase in H-Ras transformed mouse NIH3T3 cells using Rap 1A as substrate assessed as inhibition of substrate prenylation in presence of 10% bovine serum by immunoblot analysis. The format is cell-based.
Assay [15] in a line: Inhibition of FTase in human HCT-116 cells expressing low level of P-gp1 using Ras as substrate assessed as inhibition of substrate post-translation processing in presence of 10% FBS by immunoblot analysis. It counts as cell-based.
Assay [16] can be described thus: Inhibition of FTase in human HCT-116 cells expressing low level of P-gp1 using Ras as substrate assessed as inhibition of substrate post-translation processing in presence of 20% human serum by immunoblot analysis. The format is cell-based.
Assay [17] in a line: Inhibition of FTase in human DLD-1 cells expressing moderate level of P-gp1 using Ras as substrate assessed as inhibition of substrate post-translation processing in presence of 10% FBS by immunoblot analysis. It counts as cell-based.
A short description of assay [18]: Inhibition of FTase in human DLD-1 cells expressing moderate level of P-gp1 using Ras as substrate assessed as inhibition of substrate post-translation processing in presence of 10% human serum by immunoblot analysis. The format is cell-based.
A short description of assay [19]: Inhibition of FTase in human HCT-15 cells expressing high level of P-gp1 using Ras as substrate assessed as inhibition of substrate post-translation processing in presence of 10% FBS by immunoblot analysis. It counts as cell-based.
Assay [20] is described as follows: Inhibition of FTase in human HCT-15 cells expressing high level of P-gp1 using Ras as substrate assessed as inhibition of substrate post-translation processing in presence of 20% human serum by immunoblot analysis. The format is cell-based.
The nature of assay [21]: Ratio of EC50 for inhibition of FTase in human HCT-116 cells expressing low level of P-gp1 using Ras as substrate assessed as inhibition of substrate post-translation processing in presence of 20% human serum to EC50 for inhibition of FTase in human HCT-116 cells expressing low level of P-gp1 using Ras as substrate assessed as inhibition of substrate post-translation processing in presence of 10% …. The conditions noted are these: condition cancer.

Assay [22] can be described thus: Ratio of EC50 for inhibition of FTase in human DLD-1 cells expressing moderate level of P-gp1 using Ras as substrate assessed as inhibition of substrate post-translation processing in presence of 20% human serum to EC50 for inhibition of FTase in human DLD-1 cells expressing moderate level of P-gp1 using Ras as substrate assessed as inhibition of substrate post-translation processing in presence …. Conditions: condition cancer.

Assay [23] can be described thus: Ratio of EC50 for inhibition of FTase in human HCT-15 cells expressing high level of P-gp1 using Ras as substrate assessed as inhibition of substrate post-translation processing in presence of 20% human serum to EC50 for inhibition of FTase in human HCT-15 cells expressing high level of P-gp1 using Ras as substrate assessed as inhibition of substrate post-translation processing in presence of 10% …. Conditions: condition cancer.

Assay [24] in a line: Inhibition of FTase (unknown origin). More on the design: species or system Homo sapiens.
The subject of assay [25] is NIH3T3. Put plainly: Inhibition of anchorage-independent growth in H-Ras transformed mouse NIH3T3 cells assessed as inhibition of colony formation in presence of 10% bovine serum. The format is functional, cell-based.
Assay [26] concerns HCT-116. Put plainly: Inhibition of anchorage-independent growth in human HCT-116 cells assessed as inhibition of colony formation in presence of 10% FBS. It counts as functional, cell-based.

Each structure is given as a SMILES string.

In the case of `CCc1c2c(nc3ccc(OC(=O)N4CCC(N5CCCCC5)CC4)cc13)-c1cc3c(c(=O)n1C2)COC(=O)[C@]3(O)CC` [IRINOTECAN], the ILS at 50 mg/kg with HCT-116 [1] was 200%.

Turning to `Nc1ccn([C@@H]2O[C@H](CO)[C@@H](O)C2(F)F)c(=O)n1` [GEMCITABINE], the Activity in the assay on HCT-116 [2] was determined as 359 mm3. The T/C in the assay on HCT-116 [3] is 22%. The ILS at 30 mg/kg with HCT-116 [4] was determined as 112%.

In the case of `Cn1cncc1[C@@](N)(c1ccc(Cl)cc1)c1ccc2c(c1)c(-c1cccc(Cl)c1)cc(=O)n2C` [TIPIFARNIB], the half-inhibitory concentration (IC50) in assay [5] is 57 nM; in [6], 0.45 nM; in [7], 1040 nM. For the same compound, the half-maximal effective concentration (EC50) with NIH3T3 [8] is 3.7 nM; in the assay on HCT-116 [9], 24 nM; in assay [13], 2.3 nM; in [14] it was above 30 µM; in assay [15] it was 0.98 nM; in [16], 6.7 nM. Further, the concentration giving a half-maximal response (EC50) worked out at 0.69 nM in [17], 3.1 nM in [18], 0.55 nM in [19] and 4.9 nM in assay [20]. Besides, the Activity with HCT-116 [10] is 820 mm3. The T/C with HCT-116 [11] was 56%. The ILS at 100 mg/kg in the assay on HCT-116 [12] was 39%. Besides, the “Ratio EC50” value in assay [21], in assay [22] and in assay [23] was 4.4 throughout.

Consider `Cn1cncc1C(O)(COc1ccc(C#N)cc1-c1ccc(OC(F)(F)F)cc1)c1ccc(C#N)cc1` (stereo not drawn), for which the values for the EC50 in assay [13] and in [24] were 2 nM and 0.6 nM, respectively.

In the case of `NC(=O)N1CCC(CC(=O)N2CCC([C@H]3c4ncc(Br)cc4CCc4cc(Cl)cc(Br)c43)CC2)CC1` [LONAFARNIB], the IC50 in assay [5] was 7.8 nM; in assay [6], 4.9 nM; in assay [7], above 10000 nM. The EC50 was 56 nM with NIH3T3 [8]; 94 nM in the assay with HCT-116 [9]; 50 nM with NIH3T3 [25]; 74 nM in the assay with HCT-116 [26]; 160 nM in assay [13]; above 30 µM in assay [14]. Moreover, the EC50 in assay [15] came to 16 nM; in assay [16], 49 nM; in assay [17], 12 nM; in assay [18] it was 23 nM; in assay [19], 37 nM; in assay [20], 210 nM. Besides, the “Ratio EC50” value in assay [21], in assay [22] and in assay [23] was 1.9 in each case.
